According to ChEMBL document CHEMBL1201862, “PubChem BioAssay data set” (2004):
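Five concentrations, 48 hours, 96-well plates. At the GI50, growth is halved.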 Calls of active or inactive are those of the source. Cut-off read from the data, not from the text of the source: active = GI50 up to about 1.1 µM and inactive = higher.

Legend:
Assay in all cases: NCI-60 cell line screen, 48 h
UACC-62 = test system: UACC-62
MDA-MB-435 = test system: MDA-MB-435
SK-MEL-28 = test system: SK-MEL-28
OVCAR-3 = test system: OVCAR-3
NCI/ADR-RES = test system: NCI/ADR-RES
Hs-578T = test system: Hs-578T
MDA-N = test system: MDA-N
UACC-257 = test system: UACC-257
SNB-75 = test system: SNB-75
UO-31 = test system: UO-31
HCT-116 = test system: HCT-116
SR = test system: SR
TK-10 = test system: TK-10
NCI-H522 = test system: NCI-H522
RXF 393 = test system: RXF 393
IGROV-1 = test system: IGROV-1
MOLT-4 = test system: MOLT-4
COLO 205 = test system: COLO 205
K562 = test system: K562
MDA-MB-231 = test system: MDA-MB-231

Measured: GI50

CCOC(=O)c1nc2cc(F)c(F)cc2nc1NCc1cc(OC)c(OC)c(OC)c1
inactive: UACC-62 67.1 µM | MDA-MB-435 > 100 µM | SK-MEL-28 > 100 µM | OVCAR-3 > 100 µM | NCI/ADR-RES > 100 µM | Hs-578T 50.7 µM | MDA-N > 100 µM | UACC-257 > 100 µM | SNB-75 16.5 µM | UO-31 63.7 µM | HCT-116 > 100 µM | SR > 100 µM | TK-10 > 100 µM | NCI-H522 > 100 µM | RXF 393 30.1 µM | IGROV-1 > 100 µM | MOLT-4 > 100 µM | COLO 205 > 100 µM

COC(=O)C1=C(C(=O)Nc2cccnc2Cl)N(c2ccc(OC)cc2[N+](=O)[O-])C(c2ccc(C)cc2)=CC1c1ccc(OC)cc1OC (centres undefined)
inactive: UACC-62 24.3 µM | MDA-MB-435 5.64 µM | SK-MEL-28 59.6 µM | OVCAR-3 8.57 µM | NCI/ADR-RES 17.6 µM | K562 4.67 µM | Hs-578T 25.3 µM | UACC-257 25.8 µM | SNB-75 14.2 µM | UO-31 12.4 µM | HCT-116 9.98 µM | MDA-MB-231 17.9 µM | SR 2.85 µM | TK-10 20.7 µM | NCI-H522 2.59 µM | RXF 393 3.13 µM | IGROV-1 5.94 µM | MOLT-4 7.94 µM | COLO 205 15.5 µM

CCOC(=O)CCC(NC(=O)OCc1ccccc1)C(=O)NC(CCC(=O)OCC)C(=O)NC(CCC(=O)OCC)C(=O)NNC(=O)OC(C)(C)C (centres undefined)
inactive: UACC-62 > 100 µM | SK-MEL-28 > 100 µM | K562 > 100 µM | Hs-578T > 100 µM | MDA-N > 100 µM | UACC-257 > 100 µM | SNB-75 > 100 µM | UO-31 > 100 µM | HCT-116 > 100 µM | MDA-MB-231 > 100 µM | SR > 100 µM | TK-10 > 100 µM | RXF 393 > 100 µM | IGROV-1 > 100 µM | MOLT-4 > 100 µM | COLO 205 > 100 µM

CC1=NNC(=O)[C@H]2[C@H]1CCC1[C@@H]2CC[C@]2(C)[C@@H](O)CC[C@@H]12 (some centres undefined)
inactive: UACC-62 > 100 µM | MDA-MB-435 > 100 µM | SK-MEL-28 > 100 µM | OVCAR-3 > 100 µM | NCI/ADR-RES > 100 µM | K562 > 100 µM | Hs-578T > 100 µM | MDA-N > 100 µM | UACC-257 > 100 µM | SNB-75 12.6 µM | UO-31 > 100 µM | HCT-116 > 100 µM | MDA-MB-231 > 100 µM | TK-10 > 100 µM | NCI-H522 > 100 µM | RXF 393 > 100 µM | IGROV-1 > 100 µM | MOLT-4 > 100 µM | COLO 205 > 100 µM

OC(CCN1CCN(CCOC(c2ccccc2)c2ccccc2)CC1)c1ccc(Br)cc1 (centres undefined)
inactive: UACC-62 10.6 µM | MDA-MB-435 11 µM | SK-MEL-28 7.69 µM | OVCAR-3 12.6 µM | NCI/ADR-RES 8.36 µM | Hs-578T 16 µM | MDA-N 10.9 µM | UACC-257 3.47 µM | SNB-75 12.8 µM | UO-31 2.38 µM | HCT-116 11.2 µM | MDA-MB-231 11.7 µM | TK-10 13.7 µM | NCI-H522 14.3 µM | RXF 393 9.38 µM | IGROV-1 10.9 µM | COLO 205 1.71 µM

Cn1c(=O)c2c(nc3sc4ccccc4c(=O)n32)n(C)c1=O
inactive: UACC-62 > 100 µM | MDA-MB-435 > 100 µM | SK-MEL-28 > 100 µM | OVCAR-3 > 100 µM | NCI/ADR-RES > 100 µM | K562 > 100 µM | Hs-578T > 100 µM | MDA-N > 100 µM | UACC-257 > 100 µM | SNB-75 68.4 µM | UO-31 > 100 µM | HCT-116 > 100 µM | MDA-MB-231 > 100 µM | TK-10 > 100 µM | RXF 393 > 100 µM | IGROV-1 > 100 µM | MOLT-4 > 100 µM | COLO 205 > 100 µM

CN(CCN1CCCC1)C1CCc2cc(Cl)c(Cl)cc2C1 (centres undefined)
inactive: UACC-62 5.71 µM | MDA-MB-435 14.4 µM | SK-MEL-28 18.5 µM | OVCAR-3 17.1 µM | NCI/ADR-RES 12.4 µM | K562 21.8 µM | Hs-578T 29.9 µM | MDA-N 9.2 µM | UACC-257 16.4 µM | UO-31 13.2 µM | HCT-116 12.5 µM | MDA-MB-231 17.6 µM | SR 20.5 µM | TK-10 17.1 µM | NCI-H522 17.2 µM | IGROV-1 15.6 µM | MOLT-4 24.8 µM | COLO 205 3.6 µM

CSc1cnn(CCC#N)c(=O)n1
inactive: UACC-62 > 100 µM | MDA-MB-435 > 100 µM | SK-MEL-28 > 100 µM | K562 33.1 µM | Hs-578T > 100 µM | MDA-N > 100 µM | UACC-257 62.5 µM | SNB-75 84.9 µM | UO-31 > 100 µM | HCT-116 > 100 µM | MDA-MB-231 > 100 µM | SR 40.9 µM | TK-10 > 100 µM | NCI-H522 > 100 µM | RXF 393 > 100 µM | IGROV-1 > 100 µM | MOLT-4 27.1 µM | COLO 205 > 100 µM

Cc1cc(OC(=O)Nc2cccc3ccccc23)c(C(C)C)cc1C(=S)Nc1ccccc1
inactive: UACC-62 12.5 µM | MDA-MB-435 18.1 µM | SK-MEL-28 18 µM | OVCAR-3 16.1 µM | NCI/ADR-RES 16.6 µM | K562 5.77 µM | Hs-578T 12.3 µM | MDA-N 17.9 µM | UACC-257 18.7 µM | UO-31 17.6 µM | HCT-116 17.8 µM | SR 6.49 µM | NCI-H522 14.1 µM | IGROV-1 13.6 µM | MOLT-4 11.4 µM | COLO 205 19.6 µM

O=C(/C(=C\C(=O)c1cccs1)c1ccsc1)c1ccc(Br)cc1
inactive: UACC-62 > 100 µM | MDA-MB-435 > 100 µM | SK-MEL-28 > 100 µM | NCI/ADR-RES 88.5 µM | K562 > 100 µM | Hs-578T > 100 µM | MDA-N > 100 µM | UACC-257 42.8 µM | SNB-75 > 100 µM | UO-31 > 100 µM | HCT-116 > 100 µM | MDA-MB-231 > 100 µM | SR > 100 µM | TK-10 > 100 µM | IGROV-1 > 100 µM | MOLT-4 > 100 µM | COLO 205 > 100 µM

CCCC[S+]([O-])CCC(N)P(=O)(O)O (centres undefined)
inactive: UACC-62 > 100 µM | MDA-MB-435 > 100 µM | SK-MEL-28 > 100 µM | OVCAR-3 > 100 µM | NCI/ADR-RES > 100 µM | K562 > 100 µM | Hs-578T > 100 µM | MDA-N > 100 µM | UACC-257 > 100 µM | SNB-75 > 100 µM | UO-31 > 100 µM | HCT-116 > 100 µM | SR > 100 µM | TK-10 > 100 µM | NCI-H522 > 100 µM | IGROV-1 > 100 µM | MOLT-4 > 100 µM | COLO 205 > 100 µM

COC(=O)C1=C(OC)C(=P2(c3ccccc3)CC(c3ccccc3)=C2c2ccccc2)C(C(=O)OC)=C1C(=O)OC (centres undefined)
inactive: UACC-62 61.2 µM | MDA-MB-435 40.7 µM | SK-MEL-28 > 68.5 µM | OVCAR-3 35 µM | NCI/ADR-RES > 82.4 µM | K562 4.58 µM | Hs-578T > 100 µM | MDA-N 38 µM | UACC-257 > 71.1 µM | SNB-75 41.6 µM | UO-31 14.9 µM | HCT-116 22.8 µM | MDA-MB-231 > 72.8 µM | TK-10 > 20.2 µM | NCI-H522 2.65 µM | RXF 393 18.1 µM | IGROV-1 22.2 µM | MOLT-4 3.17 µM | COLO 205 18.8 µM

CC(=O)/C(=C\Nc1c(C)n(C)n(C)c1=O)C(=O)c1ccccc1
inactive: UACC-62 > 50 µM | MDA-MB-435 > 50 µM | SK-MEL-28 > 50 µM | OVCAR-3 > 50 µM | K562 > 50 µM | Hs-578T > 50 µM | MDA-N > 50 µM | UACC-257 > 50 µM | UO-31 > 50 µM | HCT-116 > 50 µM | MDA-MB-231 > 50 µM | SR > 50 µM | TK-10 > 50 µM | NCI-H522 > 50 µM | RXF 393 > 50 µM | IGROV-1 > 50 µM | MOLT-4 > 50 µM | COLO 205 > 50 µM

CC(Nc1ccc(Cl)cc1)c1ccncc1 (centres undefined)
inactive: MDA-MB-435 > 100 µM | SK-MEL-28 > 100 µM | OVCAR-3 > 100 µM | NCI/ADR-RES 61.5 µM | K562 75.3 µM | Hs-578T > 100 µM | MDA-N > 100 µM | UACC-257 55.7 µM | SNB-75 > 100 µM | UO-31 63.1 µM | HCT-116 53.3 µM | TK-10 > 100 µM | NCI-H522 69.5 µM | RXF 393 41.8 µM | IGROV-1 62.5 µM | MOLT-4 64.3 µM | COLO 205 > 100 µM

Cc1cc(OCC(=O)N/N=C/C(Br)=C/c2ccccc2)nc(SCC(=O)N/N=C/C(Br)=C/c2ccccc2)n1
inactive: UACC-62 > 100 µM | MDA-MB-435 > 100 µM | SK-MEL-28 > 100 µM | OVCAR-3 > 100 µM | NCI/ADR-RES 53.6 µM | K562 > 100 µM | Hs-578T 39.9 µM | MDA-N 49.4 µM | UACC-257 > 100 µM | UO-31 > 100 µM | HCT-116 > 100 µM | SR > 100 µM | NCI-H522 26.6 µM | RXF 393 49.1 µM | IGROV-1 52.2 µM | COLO 205 39.1 µM
